Experimental data as given in patent US20230391786A1, “cGAS INHIBITORS” (Eli Lilly and Company, priority 2022, published 2023).
Structures can show the parent of a compound that is named as a salt.

target: recombinant human cGAS (Homo sapiens (Human), UniProt Q8N884); experiment: In vitro inhibition assay of cGAS activity (cGAMP production, RapidFire mass spectrometry); format: biochemical; conditions: 10 nM recombinant human cGAS, 60 nM 75-bp dsDNA, ATP, GTP, room temperature 3 hours, read-out: IC50 (μM), In vitro inhibition assay for Compounds 1-94
Sequence (Q8N884 whole entry): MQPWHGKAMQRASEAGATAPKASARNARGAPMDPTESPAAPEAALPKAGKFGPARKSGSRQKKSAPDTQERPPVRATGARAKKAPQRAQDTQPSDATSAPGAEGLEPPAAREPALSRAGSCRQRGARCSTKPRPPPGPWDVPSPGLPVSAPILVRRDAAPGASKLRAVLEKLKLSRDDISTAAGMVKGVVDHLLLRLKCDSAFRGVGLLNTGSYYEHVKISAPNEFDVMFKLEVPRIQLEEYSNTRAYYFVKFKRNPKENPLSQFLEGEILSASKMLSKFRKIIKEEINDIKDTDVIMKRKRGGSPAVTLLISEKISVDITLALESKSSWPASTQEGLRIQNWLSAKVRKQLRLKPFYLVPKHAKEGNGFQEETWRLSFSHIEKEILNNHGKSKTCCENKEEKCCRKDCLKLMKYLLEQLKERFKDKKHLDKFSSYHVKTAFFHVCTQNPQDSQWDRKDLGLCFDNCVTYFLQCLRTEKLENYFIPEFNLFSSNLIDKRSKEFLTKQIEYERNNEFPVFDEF
Description: Expression and Purification of Recombinant cGAS Protein: Insert cDNA encoding full-length of human cGAS into a modified bacterial expression vector containing an in-frame His6-tag. Induce the E. coli strain BL21(DE3) harboring the plasmid with 1 mM IPTG (Isopropyl β-D-1-thiogalactopyranoside) at 18° C. overnight. Purify the His6-tagged cGAS protein over HISpur Ni-NTA resin in the presence of benzonase and RNase followed by Superdex 200 size exclusion chromatography with storage buffer (50 mM Tris-HCl pH 7.5, 300 mM NaCl, 1 mM DTT, 10% glycerol).
In vitro inhibition assay of cGAS activity: Add a 5 μL mixture containing 10 mM Tris-Cl pH 7.5, 50 mM NaCl, 5 mM MgCl2, 1 mM DTT, 0.01% Triton X-100, 60 nM 75-bp dsDNA, […], 50 μM GTP, 10 nM of recombinant human cGAS, and serial dilutions of a test compound in DMSO to a 384-well plate and incubate at room temperature for 3 hours. Quench the reaction by the addition of 100 μL of stop solution containing 0.1% formic acid and 0.1 μM internal standard (3′3′-difluoro cGAMP). Measure the amount of cGAMP produced by RapidFire 365 mass spectrometry and evaluate inhibitory effect of a compound by plotting percent specific inhibition of cGAMP production against log concentration of the test compound. Calculate IC50 values using a 4-parameter non-linear logistic equation (y=(S0+((SInf−S0)/(1+((qAC50/x)^nHill))))).

IC50	SMILES
0.0427 µM	O=C(C1COCCO1)N1CCn2c(c(-c3cn[nH]c3)c3ccc(Cl)c(Cl)c32)C1 (stereo not drawn) [Example 51, [6,7-dichloro-10-(1H-pyrazol-4-yl)-3,4-dihydro-1H-pyrazino[1,2-a]indol-2-yl]-(1,4-dioxan-2-yl)methanone]
0.0754 µM	CN1CCn2c(c(-c3cn[nH]c3)c3ccc(Cl)c(Cl)c32)C1=O [Example 83, 6,7-Dichloro-2-methyl-10-(1H-pyrazol-4-yl)-3,4-dihydropyrazino[1,2-a]indol-1-one]
0.0381 µM	O=C(O)CCc1[nH]c2c(Cl)c(Cl)ccc2c1-c1cn[nH]c1 [Example 54, 3-(6,7-Dichloro-3-(1H-pyrazol-4-yl)-1H-indol-2-yl) propanoic acid]
0.064 µM	O=C(Cc1[nH]c2c(Cl)c(Cl)ccc2c1-c1cn[nH]c1)NCc1cnccn1 [Example 28, 2-[6,7-Dichloro-3-(1H-pyrazol-4-yl)-1H-indol-2-yl]-N-(pyrazin-2-ylmethyl)acetamide]
0.029 µM	CN1CCn2c(c(-c3cn[nH]c3)c3c(NCCO)cc(Cl)c(Cl)c32)C1=O [Example 87, 6,7-Dichloro-9-((2-hydroxyethyl)amino)-2-methyl-10-(1H-pyrazol-4-yl)-3,4-dihydropyrazino[1,2-a]indol-1(2H)-one]
0.0427 µM	O=C1CCc2c(-c3cn[nH]c3)c3ccc(Cl)c(Cl)c3n2C1 [Example 17, 3,4-Dichloro-10-(1H-pyrazol-4-yl)-8,9-dihydro-6H-pyrido[1,2-a]indol-7-one]
0.0826 µM	CCOc1cc(Cl)c(Cl)c2[nH]cc(-c3cn[nH]c3)c12 [Example 56, 6,7-Dichloro-4-ethoxy-3-(1H-pyrazol-4-yl)-1H-indole]
0.0268 µM	O=C(CO)N1CCn2c(c(-c3cn[nH]c3)c3ccc(Cl)c(Cl)c32)C1 [Example 53, 1-[6,7-dichloro-10-(1H-pyrazol-4-yl)-3,4-dihydro-1H-pyrazino[1,2-a]indol-2-yl]-2-hydroxy-ethanone]
0.0663 µM	OC1CCc2c(-c3cn[nH]c3)c3ccc(Cl)c(Cl)c3n2C1 (single isomer, unassigned) [Example 19, 3,4-Dichloro-10-(1H-pyrazol-4-yl)-6,7,8,9-tetrahydropyrido[1,2-a]indol-7-ol]
0.0223 µM	CN1CCOCC1CC(=O)N1CCn2c(c(-c3cn[nH]c3)c3ccc(Cl)c(Cl)c32)C1 (stereo not drawn) [Example 81, 1-[6,7-Dichloro-10-(1H-pyrazol-4-yl)-3,4-dihydro-1H-pyrazino[1,2-a]indol-2-yl]-2-(4-methylmorpholin-3-yl)ethanone]
0.0151 µM	OCCNc1cc(Cl)c(Cl)c2[nH]cc(-c3cn[nH]c3)c12 [Example 62, 2-[[6,7-Dichloro-3-(1H-pyrazol-4-yl)-1H-indol-4-yl]amino]ethanol]
0.0825 µM	NCCN1CCn2c(c(-c3cn[nH]c3)c3ccc(Cl)c(Cl)c32)C1=O [Example 33, 2-(2-Aminoethyl)-6,7-dichloro-10-(1H-pyrazol-4-yl)-3,4-dihydropyrazino[1,2-a]indol-1-one]
0.0485 µM	CN1CCn2c(c(-c3cn[nH]c3)c3c(NCC#N)cc(Cl)c(Cl)c32)C1=O [Example 86, 2-[[6,7-Dichloro-2-methyl-1-oxo-10-(1H-pyrazol-4-yl)-3,4-dihydropyrazino[1,2-a]indol-9-yl]amino]acetonitrile]
0.0219 µM	N#CCOc1cc(Cl)c(Cl)c2c1c(-c1cn[nH]c1)c1n2CCNC1 [Example 88, 2-((6,7-Dichloro-10-(1H-pyrazol-4-yl)-1,2,3,4-tetrahydropyrazino[1,2-a]indol-9-yl)oxy)acetonitrile]
0.0411 µM	O=C1c2c(-c3cn[nH]c3)c3ccc(Cl)c(Cl)c3n2CCN1CCO [Example 32, 6,7-Dichloro-2-(2-hydroxyethyl)-10-(1H-pyrazol-4-yl)-3,4-dihydropyrazino[1,2-a]indol-1-one]
0.0965 µM	O=C1CCc2c(-c3cn[nH]c3)c3ccc(Cl)c(Cl)c3n21 [Example 68, 7,8-Dichloro-4-(1H-pyrazol-4-yl)-2,3-dihydropyrrolo[1,2-a] indol-1-one]
0.0287 µM	N#CCNc1cc(Cl)c(Cl)c2c1c(-c1cn[nH]c1)c1n2CCN(C(=O)CO)C1 [Example 92, 2-[[6,7-Dichloro-2-(2-hydroxyacetyl)-10-(1H-pyrazol-4-yl)-3,4-dihydro-1H-pyrazino[1,2-a]indol-9-yl]amino]acetonitrile]
0.18 µM	N#Cc1c(Cl)ccc2c(-c3cn[nH]c3)c[nH]c12 [Example 93, 6-Chloro-3-(1H-pyrazol-4-yl)-1H-indole-7-carbonitrile]
0.0887 µM	CS(=O)(=O)NC1CCc2c(-c3cn[nH]c3)c3ccc(Cl)c(Cl)c3n2C1 (single isomer, unassigned) [Example 23, N-[3,4-Dichloro-10-(1H-pyrazol-4-yl)-6,7,8,9-tetrahydropyrido[1,2-a]indol-7-yl]methanesulfonamide]
0.0158 µM	N#CCOc1cc(Cl)c(Cl)c2[nH]cc(-c3cn[nH]c3)c12 [Example 58, 2-[[6,7-Dichloro-3-(1H-pyrazol-4-yl)-1H-indol-4-yl]oxy]acetonitrile]
0.046 µM	CC(=O)N1CCOC(CC(=O)N2CCn3c(c(-c4cn[nH]c4)c4ccc(Cl)c(Cl)c43)C2)C1 (stereo not drawn) [Example 82, 2-(4-Acetylmorpholin-2-yl)-1-[6,7-dichloro-10-(1H-pyrazol-4-yl)-3,4-dihydro-1H-pyrazino[1,2-a]indol-2-yl]ethanone]
0.0333 µM	COCc1nnc(CN2CCn3c(c(-c4cn[nH]c4)c4ccc(Cl)c(Cl)c43)C2)o1 [Example 47, 2-[[6,7-dichloro-10-(1H-pyrazol-4-yl)-3,4-dihydro-1H-pyrazino[1,2-a]indol-2-yl]methyl]-5-(methoxymethyl)-1,3,4-oxadiazole formic acid salt]
0.0737 µM	O=C(O)CCn1cc(-c2cn[nH]c2)c2ccc(Cl)c(Cl)c21 [Example 35, 3-[6,7-Dichloro-3-(1H-pyrazol-4-yl)indol-1-yl]propanoic acid]

same assay, conditions: 10 nM recombinant human cGAS, 60 nM 75-bp dsDNA, ATP, GTP, room temperature 3 hours, read-out: IC50 (μM), In vitro inhibition assay for Compounds 95-348

IC50	SMILES
0.0872 µM	O=C(NCc1[nH]c2c(Cl)c(Cl)ccc2c1-c1cn[nH]c1)c1cscn1 [Example 104, N-((6,7-Dichloro-3-(1H-pyrazol-4-yl)-1H-indol-2-yl)methyl)thiazole-4-carboxamide]
0.0698 µM	CC(=O)N1CCOCC1C(=O)N1CCn2c(c(-c3cn[nH]c3)c3ccc(Cl)c(Cl)c32)C1 (stereo not drawn) [Example 109, 1-(3-(6,7-Dichloro-10-(1H-pyrazol-4-yl)-1,2,3,4-tetrahydropyrazino[1,2-a]indole-2-carbonyl)morpholino)ethan-1-one]
0.0636 µM	O=C(CCn1ccnc1)N1CCn2c(c(-c3cn[nH]c3)c3ccc(Cl)c(Cl)c32)C1 [Example 328, 1-(6,7-Dichloro-10-(1H-pyrazol-4-yl)-3,4-dihydropyrazino[1,2-a]indol-2(1H)-yl)-3-(1H-imidazol-1-yl)propan-1-one]
0.0621 µM	COCCC(OC)C(=O)N1CCn2c(c(-c3cn[nH]c3)c3ccc(Cl)c(Cl)c32)C1 (stereo not drawn) [Example 108, 1-[6,7-Dichloro-10-(1H-pyrazol-4-yl)-3,4-dihydro-1H-pyrazino[1,2-a]indol-2-yl]-2,4-dimethoxy-butan-1-one]
0.0524 µM	COCC(=O)N(C)CC(=O)N1CCn2c(c(-c3cn[nH]c3)c3ccc(Cl)c(Cl)c32)C1 [Example 318, N-(2-(6,7-Dichloro-10-(1H-pyrazol-4-yl)-3,4-dihydropyrazino[1,2-a]indol-2(1H)-yl)-2-oxoethyl)-2-methoxy-N-methylacetamide]
0.0801 µM	CN(C)C1(CC(=O)N2CCn3c(c(-c4cn[nH]c4)c4ccc(Cl)c(Cl)c43)C2)COC1 [Example 330, 1-(6,7-Dichloro-10-(1H-pyrazol-4-yl)-3,4-dihydropyrazino[1,2-a]indol-2(1H)-yl)-2-(3-(dimethylamino)oxetan-3-yl)ethan-1-one]
0.0561 µM	Cn1ncnc1CCC(=O)N1CCn2c(c(-c3cn[nH]c3)c3ccc(Cl)c(Cl)c32)C1 [Example 110, 1-[6,7-Dichloro-10-(1H-pyrazol-4-yl)-3,4-dihydro-1H-pyrazino[1,2-a]indol-2-yl]-3-(2-methyl-1,2,4-triazol-3-yl)propan-1-one]
0.06 µM	Cc1noc(COCC(=O)N2CCn3c(c(-c4cn[nH]c4)c4ccc(Cl)c(Cl)c43)C2)n1 [Example 322, 1-(6,7-Dichloro-10-(1H-pyrazol-4-yl)-3,4-dihydropyrazino[1,2-a]indol-2(1H)-yl)-2-((3-methyl-1,2,4-oxadiazol-5-yl)methoxy)ethan-1-one]
0.0626 µM	CN1C(=O)CCC1CC(=O)N1CCn2c(c(-c3cn[nH]c3)c3ccc(Cl)c(Cl)c32)C1 (stereo not drawn) [Example 324, 5-(2-(6,7-Dichloro-10-(1H-pyrazol-4-yl)-3,4-dihydropyrazino[1,2-a]indol-2(1H)-yl)-2-oxoethyl)-1-methylpyrrolidin-2-one]
0.0864 µM	N#CCC(=O)Nc1cc(Cl)c(Cl)c2[nH]cc(-c3cn[nH]c3)c12 [Example 176, 2-Cyano-N-[6,7-dichloro-3-(1H-pyrazol-4-yl)-1H-indol-4-yl]acetamide]
